Source: US7998460B2, “Prevention of deficits in neurogenesis with anti-inflammatory agents” (The Board of Trustees of the Leland Stanford Junior …, priority 2003, dated 2011)
Entries after “also recorded” stand apart in the source; their conditions may differ.

What was measured:
adult rats = assay: Barnes maze after LPS; format: in vivo, rat
From the text: LPS-induced inflammatory response impairs performance in the Barnes maze. It has been reported previously that irradiation and LPS-induced inflammation impair performance in hippocampus-dependent spatial tasks. The present studies confirm that LPS treatment impaired recall of a goal position learned prior to LPS treatment. The Barnes maze is a 6-foot diameter bright white platform with 8 escape boxes under holes in the rim of the platform. All escape holes are blocked except one and the rat is initially placed in the goal box for familiarization. The rat is then placed in the center of the maze and is allowed to find its way back to the goal box to escape the aversive brightly lit platform. Learning is seen as a decrease in the distance traveled to reach the goal box with consecutive trials on a given day and in repeat sessions on sequential days. One measure of recall is to determine distance traveled when the animal is tested on the same task after a time delay or after experimental treatments.
To determine if there were differences in recall following LPS treatment, animals were trained on the Barnes maze for 5 consecutive days prior to LPS treatment. LPS was given on day 0 and animals tested for recall on day 7. Low-dose intraperitoneal LPS treatment makes animals feel mildly ill and they will reduce their water and food intake for a period of one or two days. There is a temporary weight loss that is fully recovered by day 7.
Animals were weighed daily and after 7 days tested for memory retention on the Barnes maze. On days 8-11, animals were re-trained for their ability to learn the position of a new goal box in the Barnes maze. Animals were then tested on day 14 for the ability to remember the position of the second goal box. LPS caused a ˜14% increase in the distance traveled to the goal box learned prior to LPS treatment, indicating impaired spatial memory. LPS caused a significant increase (˜28%) in the distance traveled during day 8 trials used to learn the position of the new goal box (indicating impaired spatial learning) but all animals eventually learned the position of the goal box by day 11 (no difference in distance traveled between LPS and control groups).

C57BI/6 mice = assay: Locomotor chambers and Morris water maze after LPS in mice; format: in vivo, mouse; conditions: for effect of NSAID on LPS-induced impairment of probe trial performance: oral NSAID course, training from Day 28
Method: Behavioral testing. Locomotor activity was measured in 17×17 inch chambers lined with three 16-beam infrared arrays in photocell boxes (MED Associates, Inc., St. Albans, Vt.). The mice were placed into the chambers and their locomotor activity was recorded for 20 minutes 4 days after LPS was injected (on Day 4). A 50 msec scanning rate was used for measuring beams broken. Distance traveled was analyzed for estimates of locomotion based on the movement of a given distance and resting delay (movement in a given period) using Open Field Activity software (MED Associates, Inc., St. Albans, Vt.).
Hippocampus-dependent learning and memory was assessed in the standard Morris water maze task. All hippocampus-dependent training and testing was conducted in a black circular tank (170 cm diameter×43 cm height) filled water made opaque using white non-toxic Tempra paint (Rich Art Color Co. Inc, Northvale, Calif.; training and testing). A platform (13 cm diameter×28.5 cm height) was hidden 1 cm below the water surface for platform shaping and training trials. Time and distance traveled in the pool was recorded using Videotrack Automated Behavioral Analysis System (Viewpoint Life Sciences Inc., Otterburn Park, Quebec).
Platform shaping began three days before platform training (Days 25-27). In the absence of extra-maze cues, mice were released from random points in the pool (filled with clearwater) near the platform and gently guided to the platform. Shaping trials continued until the mouse remained on the platform for 15 s over 3 consecutive trials on each of the three sessions.
[…] In the presence of extra-maze cues, the mice were released from the middle of the east, south, or west quadrant, facing the pool wall, and were given 120 s to find the platform hidden beneath opaque water in the center of the north quadrant. […] Sessions of 6 training trials (inter-trial interval of approximately 30 min) were conducted daily until all the mice located the platform in an average of 15 s or less within a session. […] Pathlength and latency were analyzed as measures of learning, swim speed was analyzed as a measure of sensorimotor ability and % time spent in outer annulus was analyzed as a measure of anxiety.
Probe Trial Testing was conducted at 1 week after mice reached criterion in the platform training phase of the experiment. The room setup was identical for platform training and probe trials, with the exception that the platform was removed from the pool during probe trials. The mice were given a single trial in which they were released from the center of the pool and then after 3 minutes were removed from the location that held the platform during training trials. Percent time and distance spent in each quadrant were analyzed as measures of memory, swim speed and total distance swum were analyzed as measures of sensorimotor ability and % time and distance spent in the outer annulus were analyzed as measures of anxiety. After the last probe trial, we ran four daily sessions of reversal trials (4 trials per session) in which mice were given 120 s to locate the platform hidden beneath opaque water in the south quadrant to better interpret whether probe trial performance was indicative of memory or perseveration. […] A visible platform session (2 trials) was administered after the final reversal trial to further test sensorimotor ability. Reversal and visible platform trial performance was scored identically to platform training performance.

[1] = Sickness behavior and weight loss after LPS in mice; format: in vivo, mouse; conditions: for effect of NSAID on LPS-induced sickness behavior and weight loss: oral NSAID course
From the text: LPS-induced transient illness is associated with mild but persistent memory impairment. Hippocampal neurogenesis, a phenomenon that persists throughout life in men and mice alike, has been linked to learning and memory by several groups. Manipulations that chronically deplete hippocampal neurogenesis produce concomitant impairments in cognition, particularly hippocampus-dependent memory. […] To determine whether LPS-induced illness affects learning and/or memory during either the acute recovery phase or in asymptomatic mice, a single 0 or 5 mg/kg injection of LPS was administered with daily subcutaneous saline injections over 4 days to maintain hydration and their behavior examined in locomotor chambers and/or the Morris water maze task either in the week following treatment or beginning 4 weeks after treatment when the decrease in net neurogenesis is most apparent.
Subjects. All mice used as subjects in this study were treated in accordance with the policies set forth by the Stanford Animal Care and Use Committee and NIH regarding the ethical use of animals for experimentation. CB57BI/6 mice (7 wks old upon arrival from -Taconic) were housed in groups of 4-5 in autoclaved shoebox cages under standard conditions and were given free access to autoclaved Prolab Mouse 3000 chow (PMI Nutrition International, St. Louis, Mo.) and autoclaved tap water. […] Louis, Mo.) to induce transient illness (Day 0) and daily subcutaneous (s.c.) isotonic saline (0.5 ml) injections (Days 0-3) to prevent illness-induced dehydration. The cell synthesis marker bromodeoxyuridine (BrdU; Sigma Aldrich, St. Louis, Mo.) was injected i.p. (50 mg/kg at a concentration of 10 mg/ml in freshly prepared isotonic saline) once per day for 6 days to label dividing cells, beginning Day 0 (2 h after LPS). The mice were anesthetized with ketamine/xylazine and killed at Days 7 or 28 (to assess hippocampal neurogenesis during illness and just before behavioral testing, respectively) or Day 80 (to measure hippocampal neurogenesis following behavioural testing) by perfusion with 4% paraformaldehyde. Brains were post-fixed overnight in perfusate, microtome sectioned at 40 μm through the hippocampus and stored in tissue cryoprotectant solution at −20° C. until processed immunohistochemically.

[2] = LPS 5 mg/kg, listed as Indomethacin

Compound | learning and memory, drug alone by intraperitoneal injection (adult rats; indomethacin 2.5 mg/kg twice daily i.p., no LPS) | learning and memory, oral drug alone (adult rats; indomethacin 2.5 mg/kg twice daily oral, no LPS) | effect on LPS effects on memory retention and learning of second goal box (adult rats; oral indomethacin 2.5 mg/kg twice daily with LPS) | effect of NSAID on LPS-induced impairment of probe trial performance (C57BI/6 mice; LPS 5 mg/kg) | effect of NSAID on LPS-induced impairment of probe trial performance (C57BI/6 mice; [2]) | effect of NSAID on LPS-induced sickness behavior and weight loss ([1]; LPS 5 mg/kg) | effect of NSAID on LPS-induced sickness behavior and weight loss [1, 2] | increase in distance traveled to the goal box learned prior to LPS treatment (adult rats; day 7 after LPS, memory retention) | increase in distance traveled during day 8 trials to learn the new goal box (adult rats; day 8 after LPS, spatial learning) | total distance explored and duration spent exploring a novel chamber vs vehicle (C57BI/6 mice; LPS 5 mg/kg, Day 4) | learning and remembering hidden platform position vs control, acute phase recovery (C57BI/6 mice; LPS 5 mg/kg, training from Day 7) | probe trial time in platform quadrant vs control (C57BI/6 mice; training commenced 4 weeks after LPS) | days to recovery of body weight ([1]; LPS 5 mg/kg) | days to recovery of body weight ([1]; LPS 7.5 mg/kg) | days to recovery of body weight ([1]; LPS 10 mg/kg) | onset of sickness behavior (hunching, piloerection, sweaty fur) ([1]; after LPS injection) | day by which weight loss is fully restored ([1]; lowest LPS dose tested) | loss of body weight ([1]; lowest LPS dose tested (titration 5-10 mg/kg)) | loss of body mass ([1]; within 2 d following LPS injection)
COc1ccc2c(c1)c(CC(=O)O)c(C)n2C(=O)c1ccc(Cl)cc1 [indomethacin] | perform more poorly in all tasks at all time points | no measurable effects | completely reverse | partially attenuated | reversed the effects of LPS on probe trial performance | not significantly attenuated | not significantly affected | – | – | – | – | – | – | – | – | – | – | – | –
lipopolysaccharide [LPS] | – | – | – | – | – | – | – | ~14% | ~28% | significantly smaller | equally efficient | significantly smaller amount of time; also recorded: significantly less time | 4 days | 5 days | 6 days | 1 to 2 h | ≤ 6 days | roughly 20% | approximately 10%
